# According to EP2181589A1, “Neurotoxic sterol glycosides” (Shaw, Christopher Ariel, priority 2008, dated 2010):
# Marks after values point to notes of the source that are not given here.
# Assays:
# Format in all cases: in vivo, CD-1 mice
# [1] = tested on: Cholinergic motor neurons in the spinal cord; assay: Choline acetyl transferase immunofluorescence; conditions: SG-fed vs control; for Cholinergic neurons: ventral horn of lumbar spinal cord
# Procedure: (§1) The synthetic SG was mixed with finely ground Purina Chow mouse pellets (Mouse Diet™, Purina) to create the experimental pellets with a SG content of 1000 µg per pellet. Dry materials were blended with a sterile silicon spatula. For every 5 g of standard feed, 2.5 mL of doubly-distilled water (dd)H2O was added and the dough was kneaded and round up into pellets. A single sterol glucoside containing pellet was placed in the feeding tray each morning before the addition of regular mouse chow (ad libitum). All experimental pellets were entirely consumed by the mice each day. Control mice were fed standard mouse chow pellets of identical weight with no additives. SG feeding was conducted daily for 15 weeks and mice were behaviorally monitored until sacrifice at 35 weeks (time point 1) or 52 weeks (time point 2).
# (§2) Tissue-mounted slides were processed for fluorescence microscopy as follows: Sections were rinsed in coplin jars for 45 minutes at room temperature (RT) in three changes of PBS. Sections were then incubated at RT for 30 minutes in a blocking permeabilization solution made of 5% normal goat serum (NGS), 5% normal rabbit serum (NRS) or 5% BlokHen II (Aves Labs, Inc., Tigard, OR), 0.05% Triton X-100 and PBS. Subsequently, the blocking solution was tipped off and the slides were rinsed in PBS for 2 minutes. […]
# [2] = tested on: Activating transcription factor-3; assay: Activating transcription factor-3 immunofluorescence; conditions: for Anti-ATF-3: SG-fed vs control
# Procedure: as §1, §2
# [3] = tested on: Ionized calcium-binding adaptor molecule-1; assay: IBA-1 immunofluorescence (microglia proliferation); conditions: SG-fed group over time, 35 to 52 wk
# Procedure: as §1, §2
# [4] = tested on: Dopaminergic cells Tyrosine Hydroxylase; assay: Tyrosine hydroxylase immunohistochemistry; conditions: SG-fed animals, either time-point
# Procedure: as §1, §2
# [5] = tested on: Lipid deposits; assay: Oil red O histochemistry (lipid deposits)
# Procedure: as §1
# Tissue-mounted slides were processed to evaluate lipid distribution with light microscopy with a protocol adapted from Dr. Roy Ellis (IMVS Division of Pathology, The Queen Elizabeth Hospital, Woodville, South Australia). First, an oil red O stock solution was prepared 2 hours prior to execution of the histochemical procedures. The oil red O stock stain solution was made by mixing oil red O (0.5 g, Sigma-Aldrich, Oakville, ON, Canada) and isopropanol (100 mL, Fisher Scientific, Nepean, ON, Canada) over a 40°C water bath. Immediately prior to beginning the oil red O histochemical procedures, the oil red O working solution was made by combining 20 mL of distilled water for every 30 mL of oil red O stock stain solution. […] Slide-mounted sections were rinsed in coplin jars for 15 minutes at RT in three changes of PBS. Sections were then rinsed at RT with 60% isopropanol for 5 minutes. The spinal cord sections were then stained with a freshly prepared working solution of oil red O for 20 minutes and then rinsed with 60% isopropanol. Nuclear counterstaining was achieved by staining the sections with haematoxylin (haematoxylin, 7211, Richard Allan Scientific, Kalamazoo, MI, USA) for 1 minute. Finally, the sections were rinsed with distilled water, dried under a fume hood and cover-slipped with Entellen (Merck, Darmstadt, Germany).
# The numbers of immunoreactive somata or inclusions were counted across the ventral horn of the spinal cord, across brain hemispheres, or per dorsal or ventral root with the 40x objective lens in a 600 µm / 600 µm area within region perimeters defined by a mouse brain atlas (2001). For each animal, eight cross-sections per spinal cord or brain region were studied. An average of both the right and left ventral horn for each of the eight cross sections was generated giving a final averaged number for each animal in each of the spinal cord areas. For quantification of the level of mitochondrial activity (cytochrome c oxidase labelling) in the lumbar spinal cord or tyrosine hydroxylase immunoreactivity in the substantia nigra pars compacta and striatal sections, images captured using the Motic B5 Professional Series 3.0 microscope (Motic Instruments Inc., Richmond, ON) and analyzed using Motic B5 Professional, Motic Images Advanced 3.0 (Motic Instruments Inc., Richmond, ON) were scanned into a TIFF format file and analysed using the NIH Image J 1.37 software to measure density levels of antibody labelling. Eight to 12 sections from each mouse per region of interest were included.
smiles,measurement,setting,value
CCC(C=CC(C)C1CCC2C3CC=C4CC(OC5OC(CO)C(O)C(O)C5O)CCC4(C)C3CCC12C)C(C)C (stereo not drawn) [SG],fewer cholinergic neurons,[1]; 35 weeks,18%
same,fewer cholinergic neurons,[1]; 52 weeks,32%
same,Cholinergic neurons,"[1]; time-point 1, 35 wk",Cholinergic neurons (-18%)
same,Cholinergic neurons,"[1]; time-point 2, 52 wk",Cholinergic neurons (-32%)
same,Anti-ATF-3 immunoreactive cells,"[2]; SG-fed group over time, 35 to 52 wk",Anti-ATF-3 immunoreactive cells (SG-fed group over time): -48%***
same,Anti-ATF-3,"[2]; time-point 1, 35 wk",Anti-ATF-3:+242%***
same,Anti-ATF-3,"[2]; time-point 2, 52 wk",Anti-ATF-3:+101%**
same,Anti-IBA-1 immunoreactive cells,[3],Anti-IBA-1 immunoreactive cells (SG-fed group over time) (ns)
same,"decrease in TH optical density, striata",[4],not significant
same,"accumulation of lipid deposits over time, lumbar spinal cord","[5]; SG-fed animals, 35 to 52 weeks",did not experience an accumulation of deposits over time
same,"lipid deposits, time-dependent effects in the dorsal or ventral roots","[5]; SG-fed animals, 35 to 52 weeks",did not show time-dependent effects
same,"Lipid deposits, DR","[5]; SG-fed over time, 35 to 52 wk","SG-fed DR over time: ns, p=0.8062"
same,"Lipid deposits, Lsc","[5]; SG-fed over time, 35 to 52 wk","SG-fed Lsc over time: ns, p=0.4864"
same,"Lipid deposits, VR","[5]; SG-fed over time, 35 to 52 wk","SG-fed VR over time: ns, p=0.5478"
same,lipids in the dorsal roots,"[5]; SG-fed vs control, 35 weeks",not significant
same,lipids in the ventral spinal roots,"[5]; SG-fed vs control, 35 weeks",+10%
same,"lipid deposits, inter-group differences in lumbar spinal cord, dorsal root, ventral root","[5]; SG-fed vs control, 52 weeks",statistically significant inter-group differences were not found
same,Lipids deposits Lsc VH,"[5]; SG-fed vs control, time-point 2, 52 wk",Lipids deposits Lsc VH: +10%*
